From ChEMBL document CHEMBL3243983, “2-(Alkoxyaryl)-2-imidazoline monoamine oxidase inhibitors with antidepressant activity” (J Med Chem, 1978)
The source made the active and inactive calls. No cut-off for these calls is given here.

Legend:
Mus musculus = assay: Antidepressant activity in mouse assessed as antagonism of tetrabenazine-induced symptoms at 10 mg/kg, ip administered 30 mins before 35 mg/kg, ip tetrabenazine challenge measured after 30 mins by arousal test; assay type: functional
[1] = Inhibition of MAO in mouse brain using serotonin as substrate; assay type: tissue-based
Rattus norvegicus [2] = species on record: Rattus norvegicus; assay: Inhibition of MAO in rat brain using serotonin as substrate preincubated for 15 mins; assay type: tissue-based
Rattus norvegicus [3] = species on record: Rattus norvegicus; assay: Irreversible inhibition of MAO in rat brain using serotonin as substrate preincubated for 15 mins measured after dialysis; assay type: tissue-based
Rattus norvegicus [4] = species on record: Rattus norvegicus; assay: Irreversible inhibition of MAO in rat brain using serotonin as substrate measured after dilution; assay type: tissue-based

| SMILES | inhibition (INH) (Mus musculus) | IC50 [1] | inhibition (Rattus norvegicus [2]) | inhibition (Rattus norvegicus [3]) | inhibition (Rattus norvegicus [4]) |
| --- | --- | --- | --- | --- | --- |
| Oc1ccc(C2=NCCN2)c2ccccc12 | <30% | 12000 nM |  |  |  |
| CCCCOc1ccc(C2=NCCCN2)c2ccccc12 | 30% | 50 nM |  |  |  |
| c1ccc2c(c1)cc(C1=NCCN1)c1ccccc12 | <30% | 35000 nM |  |  |  |
| CCCCOc1c(CCC)cc(C2=NCCN2)c2ccccc12 | <30% | 4900 nM |  |  |  |
| CCCCOc1ccc2c(C3=NCCN3)cccc2c1 | 60% | 32 nM |  |  |  |
| CCOc1ccc(C2=NCCN2)c2ccccc12 | 50% | 54 nM |  |  |  |
| CCCCCOc1ccc(C2=NCCN2)c2ccccc12 | 50% | 91 nM |  |  |  |
| CCCCOc1ccc(C2=NC(C)(C)CN2)c2ccccc12.Cl | <30% | 6000 nM |  |  |  |
| CCCCOc1ccc(C2=NCCN2)c2ccccc12 | 60% | 58 nM | 96% | 77% | Active |
| CCCCCCCOc1ccc(C2=NCCN2)c2ccccc12 | <30% | 400 nM | 91% | 93% | Active |
| CCCCOc1ccc(C2=NC(C)CN2)c2ccccc12 (stereo unspecified) | <60% | 60 nM |  |  |  |
| CCCCCCOc1ccc2c(C3=NCCN3)cccc2c1 | <30% | 3400 nM |  |  |  |
| CCCOc1ccc(C2=NCCN2)c2ccccc12 | 60% | 91 nM |  |  |  |
| C#CCN(C)Cc1ccccc1 [PARGYLINE] | 60% | 1200 nM |  |  |  |
| CCCCCCOc1ccc(C2=NCCN2)c2ccccc12 | 40% | 350 nM |  |  |  |
